The source of these data is patent US9440957B2, “Compounds and compositions for modulating EGFR Activity” (Novartis AG, priority 2012, dated 2016).

Each structure is given as a SMILES string. Read-outs that look alike come from different tables or passages of the source.

The target of assay [1] is H3255 (EGFR L858R) (Homo sapiens, UniProt P00533, L858R). Description: EGFR target modulation in H3255 cell line (phospho-EGFR Y1173 ELISA). The assay is classed as cell-based. How it is done: (§1) EGFR Target Modulation in H1975, H3255 and HCC827 Cell Lines Tissue Culture. Cells were maintained in 10% FBS/RPMI supplemented with 100 μg/ml Penicillin/Streptomycin (Hyclone #SH30236.01). […] The cells were allowed to incubate overnight in a 37° C., 5% CO2 humidified tissue culture incubator. […] The serial diluted compounds were transferred to the plate containing cells by using a 50 nl Pin Head device (Perkin Elmer) and the cells were placed back in the incubator for 3 hours. Phospho-EGFR ([…]) Target Modulation Assay. The media was reduced to 20 ul using a Bio-Tek ELx 405 SelectTM plate washer. […] The plates were shaken at 4° C. for 20 minutes. An aliquot of 25 ul from each well was transferred to pEGFR(Y1173) ELISA plates for analysis. Phospho-EGFR ([…]) ELISA. Solid white high-binding ELISA plates (Greiner #781074) were coated with 5 ug/ml anti-EGFR capture antibody (R&D Systems #AF231) overnight in 50 mM carbonate/bicarbonate pH 9.5 buffer. Plates were blocked with 1% BSA (Sigma #A7030) in PBS for 1 hour at room temperature. Wash steps were carried out with a Bio-Tek ELx405 SelectTM using 4 cycles of 100 ul TBS-T (20 mM Tris, 137 mM NaCl, 0.05% Tween-20) per well. […] Lysis was allowed to occur for 20 minutes on ice. A 25 ul aliquot was added to each well of the blocked ELISA plate and incubated overnight at 4° C. with gentle shaking. […] After washing, 1:2,000 anti-rabbit-HRP (Cell Signaling #7074) in 0.2% BSA/TBS-T was added and incubated for 1 hour at room temperature. Chemiluminescent detection was carried out with SuperSignal ELISA Pico substrate (ThermoScientific #37069). Signal was read on EnVision plate reader using built-in UltraLUM setting. Data Analysis. Control cells treated with EGF were set to 100% maximum response. […] With these parameters, the IC50's for each compound in each cell line was calculated using non-linear curve fitting analysis.
Chain of H3255 (EGFR L858R) (P00533 25-1210 L858R): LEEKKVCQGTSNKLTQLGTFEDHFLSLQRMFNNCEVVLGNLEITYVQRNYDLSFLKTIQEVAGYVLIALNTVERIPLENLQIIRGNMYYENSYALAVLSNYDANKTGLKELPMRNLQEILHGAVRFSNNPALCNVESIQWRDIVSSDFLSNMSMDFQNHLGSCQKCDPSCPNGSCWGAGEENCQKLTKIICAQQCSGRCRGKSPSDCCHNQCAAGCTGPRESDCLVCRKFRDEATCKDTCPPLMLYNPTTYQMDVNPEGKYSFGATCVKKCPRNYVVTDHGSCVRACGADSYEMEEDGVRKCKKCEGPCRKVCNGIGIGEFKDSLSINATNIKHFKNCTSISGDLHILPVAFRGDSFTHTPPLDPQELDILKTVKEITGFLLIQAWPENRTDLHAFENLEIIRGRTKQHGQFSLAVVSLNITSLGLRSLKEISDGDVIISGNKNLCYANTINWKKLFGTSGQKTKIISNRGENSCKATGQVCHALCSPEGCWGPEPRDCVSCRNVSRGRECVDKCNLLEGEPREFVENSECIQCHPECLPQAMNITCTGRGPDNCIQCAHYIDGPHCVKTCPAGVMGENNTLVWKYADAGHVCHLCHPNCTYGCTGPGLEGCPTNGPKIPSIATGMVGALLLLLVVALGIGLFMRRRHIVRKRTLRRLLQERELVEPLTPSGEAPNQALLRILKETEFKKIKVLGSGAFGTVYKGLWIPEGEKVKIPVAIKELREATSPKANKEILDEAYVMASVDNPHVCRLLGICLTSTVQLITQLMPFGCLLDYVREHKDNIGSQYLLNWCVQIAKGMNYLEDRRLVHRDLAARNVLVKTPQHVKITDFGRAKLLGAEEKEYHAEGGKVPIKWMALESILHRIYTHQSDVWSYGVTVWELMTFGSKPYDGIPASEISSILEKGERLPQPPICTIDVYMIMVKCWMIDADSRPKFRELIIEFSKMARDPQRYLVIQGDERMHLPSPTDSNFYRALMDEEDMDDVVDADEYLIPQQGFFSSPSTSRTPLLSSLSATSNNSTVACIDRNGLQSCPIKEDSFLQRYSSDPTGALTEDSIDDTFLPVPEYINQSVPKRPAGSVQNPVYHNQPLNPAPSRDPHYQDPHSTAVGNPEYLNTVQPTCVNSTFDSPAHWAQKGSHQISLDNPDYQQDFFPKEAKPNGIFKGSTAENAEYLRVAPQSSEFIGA
Background: ELISA stands for enzyme-linked immunosorbent assay.

Assay [2] deals with HEKn (EGFR WT) (Homo sapiens, UniProt P00533). Nature of the assay: EGFR target modulation in HEKn (EGFR-WT) cell line (phospho-EGFR Y1173 ELISA). It counts as cell-based. The conditions noted are these: value outside parentheses. The protocol: EGFR Target Modulation in HEKn (EGFR-WT) Cell Line Tissue Culture. Human neonatal epithelial keratinocytes (Invitrogen #C-001-5C) were maintained in EpiLife media (Invitrogen #[…]) supplemented with growth factors (Invitrogen #S-001-5). Cells were harvested with 0.05% Trypsin/EDTA (Hyclone #SH30236.01) and quenched with 5% FBS/EpiLife media. […] The serial diluted compounds were transferred to the plate containing cells by using a 50 nl Pin Head device (Perkin Elmer) and the cells were placed back in the incubator for 3 hours. […] Phospho-EGFR (Y1173) ELISA. Solid white high-binding ELISA plates (Greiner #781074) were coated with 5 ug/ml anti-EGFR capture antibody (R&D Systems #AF231) overnight in 50 mM carbonate/bicarbonate pH 9.5 buffer. […] Wash steps were carried out with a Bio-Tek ELx405 SelectTM using 4 cycles of 100 ul TBS-T (20 mM Tris, 137 mM NaCl, 0.05% Tween-20) per well. […] Lysis was allowed to occur for 20 minutes on ice. A 25 ul aliquot was added to each well of the blocked ELISA plate and incubated overnight at 4° C. with gentle shaking. […] After washing, 1:2,000 anti-rabbit-HRP (Cell Signaling #7074) in 0.2% BSA/TBS-T was added and incubated for 1 hour at room temperature. Chemiluminescent detection was carried out with SuperSignal ELISA Pico substrate (ThermoScientific #37069). Signal was read on EnVision plate reader using built-in UltraLUM setting. Data Analysis. Control cells treated with EGF were set to 100% maximum response. […] With these parameters, the IC50's for each compound in each cell line was calculated using non-linear curve fitting analysis.

Assay [3] has as its target human EGFR WT (NIH/3T3 cells, EGF-induced) (Homo sapiens, UniProt P00533). Nature of the assay: EGFR target modulation in engineered NIH/3T3 cell lines (phospho-EGFR Y1068 AlphaLISA), EGFR WT. It counts as cell-based. The conditions noted are these: engineered NIH/3T3 cells, read-out: NIH3T3 IC50 (μM) EGFR (WT). The procedure, abridged: (§2)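 Engineered NIH/3T3 cells expressing EGFR variants treated 3 h at 37 °C with 12-point 1:3 compound series (top stock 10 μM); only WT cells stimulated with 50 ng/ml EGF for 5 min before lysis. Phospho-Y1068 measured by AlphaLISA with total-EGFR antibody; IC50 from non-linear fitting.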
(Bead proximity is the source of the signal in Alpha formats.)

In assay [4] the target is human EGFR L858R (NIH/3T3 cells) (Homo sapiens, UniProt P00533, L858R). Description: EGFR target modulation in engineered NIH/3T3 cell lines (phospho-EGFR Y1068 AlphaLISA), EGFR L858R. The assay is classed as cell-based. As to conditions: engineered NIH/3T3 cells, read-out: NIH3T3 IC50 (μM) EGFR (L858R). The method, boiled down:
as §2

Assay [5] addresses H1975 (EGFR L858/T790M) (Homo sapiens, UniProt P00533, L858R/T790M). Nature of the assay: EGFR target modulation in H1975 cell line (phospho-EGFR Y1173 ELISA). It counts as cell-based. The protocol: as §1
Assay [6] has as its target T1, EGFR(L858R/T790M) (Homo sapiens, UniProt P00533, L858R/T790M).
T1 construct: purchased from Carna (GST-a.a. 669-1210)
Description: EGFR biochemical assay (HTRF), IC50 determinations. The method, boiled down:
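Two formats were run: compound preincubated at room temperature with enzyme and biotin-TK peptide before ATP starts the reaction, or no preincubation with enzyme added last. Reactions ran 60 min at room temperature and were stopped with EDTA. Phosphopeptide was read by HTRF (PT66K/SAXL, 1 h).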
On the technique in general: Time-resolved FRET reads energy transfer from a long-lived donor to a nearby acceptor.

Assay [7] deals with human EGFR L858R/T790M (NIH/3T3 cells) (Homo sapiens, UniProt P00533, L858R/T790M). Nature of the assay: EGFR target modulation in engineered NIH/3T3 cell lines (phospho-EGFR Y1068 AlphaLISA), EGFR L858R/T790M. It counts as cell-based. As to conditions: engineered NIH/3T3 cells, read-out: NIH3T3 IC50 (μM) EGFR (L858R/T790M). The procedure, abridged: as §2
Chain of human EGFR L858R/T790M (NIH/3T3 cells) (P00533 25-1210 T790M/L858R): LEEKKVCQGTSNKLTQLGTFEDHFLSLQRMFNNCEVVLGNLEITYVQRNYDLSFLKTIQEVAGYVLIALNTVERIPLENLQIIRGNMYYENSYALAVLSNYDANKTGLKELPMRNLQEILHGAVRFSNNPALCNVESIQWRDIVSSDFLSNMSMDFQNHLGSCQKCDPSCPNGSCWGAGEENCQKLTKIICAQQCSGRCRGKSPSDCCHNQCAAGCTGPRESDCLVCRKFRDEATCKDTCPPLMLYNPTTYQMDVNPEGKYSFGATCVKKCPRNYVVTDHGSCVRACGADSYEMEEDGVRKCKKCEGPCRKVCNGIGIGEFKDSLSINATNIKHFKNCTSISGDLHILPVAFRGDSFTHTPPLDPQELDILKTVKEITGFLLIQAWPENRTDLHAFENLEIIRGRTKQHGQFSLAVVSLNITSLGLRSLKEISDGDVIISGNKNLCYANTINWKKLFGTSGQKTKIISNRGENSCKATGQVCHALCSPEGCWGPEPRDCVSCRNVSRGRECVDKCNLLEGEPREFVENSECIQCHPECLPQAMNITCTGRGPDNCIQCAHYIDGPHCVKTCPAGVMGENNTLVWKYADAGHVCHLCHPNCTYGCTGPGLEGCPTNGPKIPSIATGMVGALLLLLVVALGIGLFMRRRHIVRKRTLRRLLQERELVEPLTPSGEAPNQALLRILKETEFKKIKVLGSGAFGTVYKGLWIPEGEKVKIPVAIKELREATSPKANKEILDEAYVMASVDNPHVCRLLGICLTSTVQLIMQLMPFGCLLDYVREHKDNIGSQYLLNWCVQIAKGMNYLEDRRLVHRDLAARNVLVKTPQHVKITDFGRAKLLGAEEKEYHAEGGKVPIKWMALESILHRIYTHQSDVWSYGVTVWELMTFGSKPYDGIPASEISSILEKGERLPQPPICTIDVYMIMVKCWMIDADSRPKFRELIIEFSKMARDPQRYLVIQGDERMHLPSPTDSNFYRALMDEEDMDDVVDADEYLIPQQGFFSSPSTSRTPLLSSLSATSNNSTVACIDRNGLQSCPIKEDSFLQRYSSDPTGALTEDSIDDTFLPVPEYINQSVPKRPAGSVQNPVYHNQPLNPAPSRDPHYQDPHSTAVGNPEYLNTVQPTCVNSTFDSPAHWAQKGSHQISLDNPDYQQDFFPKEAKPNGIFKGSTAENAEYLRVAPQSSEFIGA
The mark [8] stands for this setting: EGFR (L858R/T790M) with 90 min pre-incubation, read-out: IC50 (μM) Column B.
Where [9] appears, read: EGFR (L858R/T790M) with no pre-incubation, read-out: IC50 (μM) Column A.

Chain of H1975 (EGFR L858/T790M) (P00533 25-1210 T790M/L858R): as above
Chain of human EGFR L858R (NIH/3T3 cells) (P00533 25-1210 L858R): as the sequence (P00533 25-1210 L858R) above

Consider `COc1cc(C(=O)Nc2nc3cccc(C)c3n2C2CCCCN(C(=O)/C=C/CN(C)C)C2)ccn1` (stereo not drawn) [Example 17-48], for which the IC50 was 7 nM in assay [1]; 380 nM in assay [2]; 0.122 µM in assay [3]; 0.005 µM in assay [4]; 10 nM in assay [5]; less than 0.001 µM in assay [6] (setting [8]). For the same compound, the IC50 is 0.007 µM in assay [6] (setting [9]) and 0.004 µM in assay [7].
Take `Cc1cccc2nc(NC(=O)c3cccc(C#N)c3)n(C3CCCCN(C(=O)/C=C/CN(C)C)C3)c12` (stereo not drawn) [Example 17-42]: the IC50 in assay [1] was 13 nM; in assay [2], 206 nM; in assay [3], 0.053 µM; in assay [4] it was 0.002 µM; in assay [5], 2 nM; in assay [6] (setting [8]) it was less than 0.001 µM. The values for the IC50 in assay [6] (setting [9]) and in assay [7] were less than 0.002 µM and 0.002 µM, respectively.
With `Cc1cc(C(=O)Nc2nc3cccc(C)c3n2[C@@H]2CCCCN(C(=O)/C=C/CN(C)C)C2)cc(C)n1` [Example 17-72], the IC50 in assay [1] is 12 nM; in assay [2], 220 nM; in assay [3], 0.063 µM; in assay [4], 0.004 µM; in assay [5], 3 nM; in assay [6] (setting [8]) it was less than 0.001 µM. Besides, the IC50 turned out to be 0.004 µM in assay [6] (setting [9]) and 0.001 µM in assay [7].
With `COc1cncc(C(=O)Nc2nc3cccc(C)c3n2[C@@H]2CCCCN(C(=O)/C=C/CN(C)C)C2)c1` [Example 17-79], the IC50 in assay [1] is 7 nM; in assay [2] it was 176 nM; in assay [3], 0.062 µM; in assay [4] it was 0.005 µM; in assay [5], 2 nM; in assay [6] (setting [8]), less than 0.001 µM. Moreover, the values for the IC50 in assay [6] (setting [9]) and in assay [7] were 0.005 µM and 0.002 µM, respectively.
For the compound `Cc1cccc2nc(NC(=O)c3ccnnc3)n(C3CCCCN(C(=O)/C=C/CN(C)C)C3)c12` (stereo not drawn) [Example 17-24], the IC50 in assay [1] is 9 nM; in assay [2], 225 nM; in assay [3], 0.094 µM; in assay [4] it was 0.005 µM; in assay [5], 7 nM; in assay [6] (setting [8]), less than 0.001 µM. The IC50 in assay [6] (setting [9]) and in assay [7] was 0.006 µM each time.
With `O=C(Nc1nc2cccc(Cl)c2n1[C@@H]1CCCCN(C(=O)/C=C/CN2CC[C@@H](F)C2)C1)c1ccnnc1` [Example 3-11], the IC50 in assay [1] is 9 nM; in assay [2], 169 nM; in assay [5], 7 nM; in assay [6] (setting [8]), less than 0.001 µM; in assay [6] (setting [9]), 0.005 µM.
`COc1ccc2nc(NC(=O)c3ccnc(C)c3)n([C@@H]3CCCCN(C(=O)/C=C/CN(C)C)C3)c2c1Cl` [Example 17-177]: the IC50 in assay [1] is 4 nM; in assay [2], 93 nM; in assay [5] it was 4 nM; in assay [6] (setting [8]), less than 0.001 µM; in assay [6] (setting [9]), 0.003 µM.
For the compound `Cc1cccc2nc(NC(=O)c3ccnc(C(F)(F)F)c3)n([C@@H]3CCCCN(C(=O)/C=C/CN(C)C)C3)c12` [Example 8, (R,E)-N-(1-(1-(4-(dimethylamino)but-2-enoyl)azepan-3-yl)-7-methyl-1H-benzo[d]imidazol-2-yl)-2-(trifluoromethyl)isonicotinamide], the IC50 in assay [1] came to 2 nM; in assay [2], 82 nM; in assay [3], 0.021 µM; in assay [4] it was 0.001 µM; in assay [5] it was 1 nM; in assay [7] it was 0.001 µM.
In the case of `Cc1cc(C(=O)Nc2nc3cccc(C)c3n2[C@@H]2CCCCN(C(=O)/C=C/CN3CC[C@@H](F)C3)C2)ccn1` [Example 3-10], the IC50 in assay [1] is 13 nM; in assay [2], 620 nM; in assay [5], 8 nM; in assay [6] (setting [8]), less than 0.001 µM; in assay [6] (setting [9]) it was 0.006 µM.
As to `C=CC(=O)N1CCCC[C@@H](n2c(NC(=O)c3cccc(F)c3F)nc3cc(CN4CC[C@@H](OC)C4)cc(C)c32)C1` [Example 17-160], the IC50 was 17 nM in assay [1]; 237 nM in assay [2]; 1 nM in assay [5]; less than 0.001 µM in assay [6] (setting [8]); 0.007 µM in assay [6] (setting [9]).
Turning to `C=CC(=O)N1CCCC(n2c(NC(=O)c3cccc(C(F)(F)F)c3)nc3c2CCN(S(C)(=O)=O)C3)C1` (stereo not drawn) [Example 17-168], the IC50 is more than 2.77 µM in assay [3]; 0.6 µM in assay [4]; 0.095 µM in assay [6] (setting [8]); 1.11 µM in assay [6] (setting [9]); 0.072 µM in assay [7].
As to `Cc1cccc2nc(NC(=O)c3ccnc(OC(F)(F)F)c3)n([C@@H]3CCCCN(C(=O)/C=C/CN(C)C)C3)c12` [Example 17-102], the IC50 in assay [3] is 0.047 µM; in assay [4] it was 0.001 µM; in assay [6] (setting [8]), less than 0.001 µM; in assay [6] (setting [9]), 0.002 µM; in assay [7], 0.002 µM.
With `Cc1cccc2nc(NC(=O)c3ccn(C)c(=O)c3)n(C3CCCCN(C(=O)/C=C/CN(C)C)C3)c12` (stereo not drawn) [Example 17-49], the IC50 in assay [3] came out at 0.33 µM; in assay [4], 0.006 µM; in assay [6] (setting [8]) it was 0.001 µM; in assay [6] (setting [9]) it was 0.029 µM; in assay [7], 0.027 µM.
Turning to `C=CC(=O)N1CCCC(n2c(NC(=O)c3cccc(C(F)(F)F)c3)nc3c2CCN(C(C)=O)C3)C1` (stereo not drawn) [Example 17-169], the IC50 in assay [3] came out at 8.2 µM; in assay [4], 1.75 µM; in assay [6] (setting [8]), 0.186 µM; in assay [6] (setting [9]) it was 1.75 µM; in assay [7] it was 0.14 µM.
For the compound `Cc1cccc2nc(NC(=O)c3ccnc(Cl)c3)n([C@@H]3CCCCN(C(=O)/C=C/CN(C)C)C3)c12` [Example 17-73], the IC50 in assay [3] is 0.016 µM; in assay [4] it was 0.001 µM; in assay [6] (setting [8]), less than 0.001 µM; in assay [6] (setting [9]), less than 0.001 µM; in assay [7], less than 0.001 µM.
`COc1cc2nc(NC(=O)c3cc(C)nc(C)c3)n([C@@H]3CCCCN(C(=O)/C=C/CN(C)C)C3)c2cc1Cl` [Example 17-179]: the IC50 is 188 nM in assay [1]; 5400 nM in assay [2]; 234 nM in assay [5]; 0.012 µM in assay [6] (setting [8]); 0.23 µM in assay [6] (setting [9]).
